Measurements reported in patent US6281214A, “Biphenyl derivatives” (Eisai Co., Ltd, priority 1994, dated 2001).

Columns and labels:
Design in all cases: species or system SD rats
dopamine D2 receptor = biological target: T1, dopamine D2 receptor (Rattus norvegicus, UniProt P61169); assay: dopamine D2 receptor binding test ([3H] Spiperone Binding Test); conditions: 1 nM [3H] Spiperone, rat corpus striatum, room temperature, 60 minutes; read-out: Ki value, dopamine D2 receptor
T1 construct: the receptor fraction prepared from the corpus striatum was molten and suspended; from tissue; host or cells: corpus striatum of SD rats (membrane fraction)
Summary of the method: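 Rat (SD, 6–8 weeks) corpus striatum membranes in 50 mM Krebs-Tris pH 7.4 were incubated with 1 nM [3H]spiperone at room temperature for 60 minutes, with nonspecific binding defined by excess spiperone. IC50 came from probit analysis; Ki was derived using radioligand concentration and Scatchard Kd.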

serotonin S2 receptor = biological target: T2, serotonin S2 receptor (Rattus norvegicus, UniProt P14842); assay: serotonin S2 receptor binding test ([3H] Ketanserin Binding Test); conditions: 1 nM [3H] Ketanserin, rat cortex, 37° C., 15 minutes
T2 construct: The receptor fraction prepared from the cortex was molten and suspended; from tissue; host or cells: cerebral cortex of SD rats (membrane fraction)
Summary of the method: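 Rat (SD, 6–8 weeks) cortical membranes in 50 mM Tris-HCl pH 7.4 were incubated with 1 nM [3H]ketanserin for 15 min at 37 °C, then filtered and counted. Nonspecific binding was defined with methysergide. IC50 was obtained by probit analysis and converted to Ki using the Scatchard-derived Kd.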

adrenergic α1 receptor = adrenergic α1 receptor binding test ([3H] Prazosin Binding Test); conditions: 1 nM [3H] Prazosin, rat cortex, room temperature, 60 minutes
Summary of the method: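 Rat (SD, 6-8 weeks) cerebral cortex membranes in 50 mM Tris-HCl pH 7.4 incubated with 1 nM [3H]prazosin for 60 min at room temperature; nonspecific binding defined with phentolamine. IC50 by probit method, converted to Ki using radioligand concentration and Scatchard-derived Kd.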

T1 sequence (P61169 whole entry): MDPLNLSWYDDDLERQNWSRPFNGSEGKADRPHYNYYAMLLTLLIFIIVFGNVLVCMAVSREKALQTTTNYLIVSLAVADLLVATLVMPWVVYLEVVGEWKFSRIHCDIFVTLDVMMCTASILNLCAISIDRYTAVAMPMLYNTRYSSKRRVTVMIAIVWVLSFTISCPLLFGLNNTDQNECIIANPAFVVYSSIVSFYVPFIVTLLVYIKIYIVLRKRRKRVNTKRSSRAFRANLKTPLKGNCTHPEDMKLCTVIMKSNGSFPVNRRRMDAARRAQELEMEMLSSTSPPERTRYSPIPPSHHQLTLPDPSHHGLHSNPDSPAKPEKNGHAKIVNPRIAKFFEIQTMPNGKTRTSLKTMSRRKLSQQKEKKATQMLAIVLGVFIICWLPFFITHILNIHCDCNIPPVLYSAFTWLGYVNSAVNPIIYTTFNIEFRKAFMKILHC
T2 sequence (P14842 whole entry): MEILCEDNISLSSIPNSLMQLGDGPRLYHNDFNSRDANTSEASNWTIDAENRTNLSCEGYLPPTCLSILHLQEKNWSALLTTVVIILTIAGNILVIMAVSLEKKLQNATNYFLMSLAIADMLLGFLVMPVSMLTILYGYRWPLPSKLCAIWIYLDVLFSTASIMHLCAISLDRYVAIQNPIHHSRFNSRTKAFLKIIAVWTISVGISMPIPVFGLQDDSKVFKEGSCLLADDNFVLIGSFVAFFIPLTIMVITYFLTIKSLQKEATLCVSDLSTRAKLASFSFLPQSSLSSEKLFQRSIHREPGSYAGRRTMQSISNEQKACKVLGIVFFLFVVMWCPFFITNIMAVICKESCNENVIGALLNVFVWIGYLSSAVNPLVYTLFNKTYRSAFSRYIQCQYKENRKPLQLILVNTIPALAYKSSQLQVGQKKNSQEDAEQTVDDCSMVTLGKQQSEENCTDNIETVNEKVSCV

Row | SMILES | Ki (dopamine D2 receptor) [µM] | Ki (serotonin S2 receptor) [µM] | Ki (adrenergic α1 receptor) [µM]
1 | CCCS(=O)(=O)Nc1cc(N2CCN(CC)CC2)cc(-c2ccccc2C#N)c1Cl [Example 197, 1-Ethyl-4-[3-(2-cyanophenyl)-4-chloro-5-propanesulfonylamino]phenylpiperazine] | 0.0014 | 0.00886 | 0.0314
2 | CCC(F)c1cc(N2CCN(C)CC2)cc(-c2ccccc2CO)c1Cl (stereo not drawn) [Example 207] | 0.24 | 0.0811 | > 1
3 | CCCCC(F)c1cc(N2CCN(CC)CC2)cc(-c2ccccc2)c1OC (stereo not drawn) [Example 48, 1-Ethyl-4-[3-phenyl-4-methoxy-5-(1-fluoropentyl)]phenylpiperazine] | 0.0258 | 0.00432 | > 1
4 | CCN1CCN(c2cc(-c3ccccc3)c(OC)c(S(N)(=O)=O)c2)CC1 [Example 124, 1-Ethyl-4-(3-phenyl-4-methoxy-5-aminosulfonyl)phenylpiperazine] | 0.0992 | > 1 | > 1
5 | CCC(F)c1cc(N2CCN(CC)CC2)cc(-c2ccccc2C)c1C#N (stereo not drawn) [Example 164, 1-Ethyl-4-[3-(2-tolyl)-4-cyano-5-(1-fluoropropyl)]phenylpiperazine] | 0.00162 | 0.012 | > 1
6 | CCS(=O)(=O)c1cc(N2CCN(CCO)CC2)cc(-c2ccc(F)cc2)c1OC [Example 195] | 0.0706 | 0.00575 | > 1
7 | CCCS(=O)(=O)c1cc(N2CCN(CC)CC2)cc(-c2ccccc2)c1Cl [Example 191] | 0.00165 | 0.00376 | 0.0212
8 | CCCS(=O)(=O)Nc1cc(N2CCN(CC)CC2)cc(-c2ccccc2Cl)c1Cl [Example 32, 1-Ethyl-4-[3-(2-chlorophenyl)-4-chloro-5-propanesulfonylamino]phenylpiperazine] | 0.00038 | 0.00336 | 0.0195
9 | CCN1CCN(c2cc(-c3ccccc3)c(OC)c(C3OCCCO3)c2)CC1 [Example 107, 1-Ethyl-4-[3-phenyl-4-methoxy-5-(1,3-dioxan-2yl)]phenylpiperazine] | 0.429 | > 1 | > 1
10 | CCC(F)c1cc(N2CCN(CCO)CC2)cc(-c2ccccc2C#N)c1Cl (single isomer, unassigned) [Example 13, 1-(2-hydroxyethyl)-4-[3-(2-cyanophenyl)-4-chloro-5-(fluoropropyl)]phenylpiperazine] | 0.00405 | 0.0249 | 0.404
11 | CCN1CCN(c2cc(-c3ccccc3)c(OC)c(-c3ccco3)c2)CC1 [Example 90] | 0.263 | 0.685 | > 1
12 | CCN1CCN(c2cc(C(Cc3ccc(F)cc3)=NO)c(OC)c(-c3ccccc3)c2)CC1 [Example 98, 1-Ethyl-4-{3-phenyl-4-methoxy-5-[4-fluoro-(1-hydroxyimino)phentheyl]}phenylpiperazine] | 0.0645 | 0.0193 | > 1
13 | CCCS(=O)(=O)Nc1cc(N2CCN(CC)CC2)cc(-c2ccccc2)c1Cl [Example 184, 1-Ethyl-4-(3-phenyl-4-chloro-5-propanesulfonylamino)phenylpiperazine] | 0.00017 | 0.00209 | 0.00452
14 | CCN1CCN(c2cc(CCCOCOC)c(OC)c(-c3ccccc3)c2)CC1 [Example 69, 1-Ethyl-4-[3-phenyl-4-methoxy-5-(3-methoxymethoxypropyl)]phenylpiperazine] | 0.171 | 0.0671 | 0.321
15 | CCN1CCN(c2cc(-c3ccccc3)c(OC)c(N(C)S(=O)(=O)CC)c2)CC1 [Example 122, 1-Ethyl-4-[3-phenyl-4-methoxy-5-(N-ethanesulfonyl-N-methylamino)]phenylpiperazine] | 0.0459 | 0.123 | 0.0681
16 | CCN1CCN(c2cc(-c3ccccc3)c(O)c(-c3ccccc3)c2)CC1 [Example 58, 1-Ethyl-4-(3,5-diphenyl-4-hydroxy)phenylpiperazine] | > 1 | > 1 | 0.29
17 | CCN1CCN(c2cc(-c3ccccc3)c(OC)c(C3CCCO3)c2)CC1 (stereo not drawn) [Example 95, 1-Ethyl-4-[3-phenyl-4-methoxy-5-(2-tetrahydrofuranyl)]phenylpiperazine] | 0.104 | 0.0409 | 0.279
18 | C=CCCC(F)c1cc(N2CCN(CC)CC2)cc(-c2ccccc2C)c1Cl (stereo not drawn) [Example 160, 1-Ethyl-4-[3-(2-tolyl)-4-chloro-5-(1-fluoro-4-pentenyl)]phenylpiperazine] | 0.0136 | 0.0148 | > 1
19 | CCN1CCN(c2cc(-c3ccccc3C)c(Cl)c(C(C)F)c2)CC1 (stereo not drawn) [Example 52] | 0.00099 | 0.0216 | > 1
20 | CCN1CCN(c2cc(-c3ccc(F)cc3)c(OC)c(S(=O)(=O)CC)c2)CC1 [Example 40] | 0.00925 | 0.00364 | > 1
21 | CCCS(=O)(=O)c1cc(N2CCN(CC)CC2)cc(-c2ccccc2)c1OC [Example 170, 1-Ethyl-4-(3-phenyl-4-methoxy-5-propanesulfonyl)phenylpiperazine] | 0.0342 | 0.00277 | > 1
22 | CCN1CCN(c2cc(-c3ccccc3)c(OC)c(S(=O)(=O)N(C)C)c2)CC1 [Example 134, 1-Ethyl-4-(3-phenyl-4-methoxy-5-dimemthylaminosulfonyl)phenylpiperazine] | 0.0597 | 0.0303 | > 1
23 | CCS(=O)(=O)c1cc(N2CCN(CCc3ccccn3)CC2)cc(-c2ccc(F)cc2)c1OC [Example 198, 1-[2-(2-Pyridyl)ethyl]-4-[3-(4-fluorophenyl)-4-methoxy-5-ethanesulfonyl]phenylpiperazine] | 0.0121 | 0.00106 | 0.0627
24 | CCC(=O)c1cc(N2CCN(CC)CC2)cc(-c2ccccc2)c1Cl [Example 140, 1-Ethyl-4-(3-phenyl-4-chloro-5-propionyl)phenylpiperazine] | 0.00297 | 0.0262 | 0.0955
25 | CCN1CCN(c2cc(CCCF)c(OC)c(-c3ccccc3)c2)CC1 [Example 77, 1-Ethyl-4-[3-phenyl-4-methoxy-5-(3-fluoropropyl)]phenylpiperazine] | 0.04 | 0.0243 | 0.182
26 | CCCC(F)c1cc(N2CCN(CC)CC2)cc(-c2ccccc2C)c1Cl (stereo not drawn) [Example 49, 1-Ethyl-4-[3-(2-tolyl)-4-chloro-5-(1-fluorobutyl)]phenylpiperazine] | 0.00609 | 0.0201 | > 1
27 | CN1CCN(c2cc(NS(C)(=O)=O)c(Cl)c(-c3ccccc3Cl)c2)CC1 [Example 188, 1-Methyl-4-[3-(2-chlorophenyl)-4-chloro-5-methanesulfonylamino]phenylpiperazine] | 0.00133 | 0.0478 | 0.019
28 | CCC(F)c1cc(N2CCN(CCCc3ccncc3)CC2)cc(-c2ccccc2C)c1Cl (stereo not drawn) [Example 150] | 0.00798 | 0.0971 | > 1
29 | CCN1CCN(c2cc(CCCOC)c(OC)c(-c3ccccc3)c2)CC1 [Example 68, 1-Ethyl-4-[3-phenyl-4-methoxy-5-(3-methoxypropyl)]phenylpiperazine] | 0.0351 | 0.032 | 0.195
30 | CCOC(=O)CCc1cc(N2CCN(CC)CC2)cc(-c2ccccc2)c1OC [Example 111, 1-Ethyl-4-[3-phenyl-4-methoxy-5-(2-ethoxycarbonylethyl)]phenylpiperazine] | 0.0419 | 0.058 | 0.21
